For the data set, the system named is neuropathic pain caused by oxaliplatin in rats. The data set is described as follows: Randall-Selitto pain thresholds in rats given repeated intraperitoneal oxaliplatin (chemo-induced neuropathic pain model). As to the method:
A preclinical study in rats was carried out.
In order to mimic the clinical use as closely as possible, a series of 8 intraperitoneal injections of oxaliplatin were given every 3 to 4 days, as illustrated in FIG. 2. This model is well known in the literature and gives an account of chemo-induced neuropathic pain.
The pain thresholds were evaluated by means of a Randall-Selitto device by applying an increasing pressure to the paw of the rat until the animal lets out a cry. The corresponding weight in grams is then noted (the Y-axis in FIG. 2). Thus, the earlier the animal cries out, for a low weight, the more pain it has.

Molecules are shown by their SMILES.

Data on two compounds can be found in patent US20130095194A1 (L'Air Liquide, Société Anonyme pour I'Etude et …, priority 2011, published 2013).

`O=C1[O][Pt]2([NH][C@@H]3CCCC[C@H]3[NH]2)[O]C1=O` [oxaliplatin]: the “pain thresholds (Randall-Selitto, weight at which the animal cries out)” value (group B: oxaliplatin 2 mg/kg, 8 intraperitoneal injections every 3 to 4 days, with N2/O2 (50%-50%) control gas for 1 hour, control group A 200 g) was “approximately 150 g”. In addition, the “persistence of hypersensitivity to pain after the final administration of oxaliplatin” value (group B, final administration on D25, still present on D42) is given as “more than 2 weeks”. Consider `[Xe]` [xenon], for which the “hypersensitivity to pain (pain threshold curve versus control group A)” value (rats given oxaliplatin 2 mg/kg, gas/O2 (50%-50%) inhaled for 1 hour with each administration) is given as “no sign of hypersensitivity to pain”.
